Assay results from PMC6009935 (Journal of Enzyme Inhibition and Medicinal Chemistry, 2017).

Target: T1, KOR (Cavia porcellus, UniProt P41144)
T1 construct: b: performed in guinea pig whole brain membrane homogenates; from tissue; host or cells: guinea pig (LAL/HA/BR strain) whole brain membrane homogenate
Assay: Radioligand competition binding with [3H]HS665
Design: species or system guinea pig
Protocol: Tris-HCl, EGTA, NaCl, MgCl2 x 6H2O, GDP, the GTP analogue GTPγS, were purchased from Sigma-Aldrich (Budapest, Hungary). Fatty acid free bovine serum albumin (BSA) was purchased from Serva (Heidelberg, Germany). Naloxone was kindly provided by the company Endo Laboratories DuPont de Nemours (Wilmington, DE, USA). HS665 was provided by Schmidhammer’s group (University of Innsbruck, Austria). […]
purchased from Tocris Bioscience (Bristol, UK).
DMSO. All compounds were stored in 1 mM stock solution at -20 °C. The radiolabelled GTP analogue, [35S]GTPγS (specific activity: 1000 Ci/mmol) were purchased from Hartmann Analytic (Braunschweig, Germany). [3H]DAMGO (specific activity: 38.8 Ci/mmol),12 [3H]IleDelt II (specific activity: 19,6 Ci/mmol), [3H]WIN55,212-2 (specific activity: 13,1 Ci/mmol) and [3H]HS665 (specific activity: 36.62 Ci/mmol),3 were radiolabeled by the Laboratory of Chemical Biology group in BRC (Szeged, Hungary).
For membrane homogenate preparations male and female Wistar rats (250-300 g body weight) and male guinea pigs (~700 g body weight, LAL/HA/BR strain) were used. Rats were housed in the local animal house of BRC (Szeged, Hungary), while guinea pigs were housed in LAB-ÁLL Bt.
(Budapest, Hungary). All the animals were kept in a temperature controlled room (21-24 °C) under a 12:12 light and dark cycle and were provided with water and food ad libitum. All housing and experiments were conducted in accordance with the European Communities Council Directives (2010/63/EU) and the Hungarian Act for the Protection of Animals in Research (XXVIII.tv. 32.§).
The total number of animals as well as their suffering was minimized.
Rat and guinea pig brain membrane homogenate preparation for binding assays Rats and guinea pigs were decapitated and their brains were quickly removed. The brains were prepared for membrane preparation as previously described,4 and partly used for binding experiments and partly were further prepared for the [35S]GTPγS binding experiments. Briefly the brains were homogenized, centrifuged in ice-cold 50 mM Tris-HCl (pH 7.4) buffer and incubated at 37 °C for 30 min in a shaking water-bath. After incubation the centrifugation was repeated as described above and the final pellet was suspended in 50 mM Tris-HCl pH 7.4 buffer containing 0.32 M sucrose, and stored at -80 °C. For the [35S]GTPγS binding experiments the final pellet of rat […]
brain membrane homogenate was suspended in ice-cold TEM (Tris-HCl, EGTA, MgCl2) and stored at -80 °C for further use.
Radioligand competition binding experiments
Aliquots of frozen rat brain membrane homogenates were centrifuged (18 000 rpm, 20 min, 4 °C) to remove sucrose and the pellets were suspended in 50 mM Tris-HCl buffer (pH 7.4). Membranes containing 0.4-0.8 mg/mL of protein were incubated in a final volume of 1 mL in the presence of unlabeled 5, 10 and 9 in increasing concentrations (10-11-10-5 M) in the presence of the appropriate radioligand in ~1 nM concentrations at certain temperature and amount of time depending on the radioligand ([3H]DAMGO and [3H]IleDelt II: 35 °C for 45 min; [3H]HS665: 30 °C, 45 min; [3H]WIN55,212-2: 30 °C for 60 min). Experiments performed with [3H]HS665 where incubated […]
more kappa receptors than the rat brain), while the rest of the radioligands were incubated together with rat whole brain membrane homogenates. Additionally, in experiments performed with […]
binding was determined in the absence of unlabeled compounds. […]

SMILES | KOR binding affinity in words | Ki (guinea pig whole brain membrane homogenates, Cheng-Prusoff) [nM] | IC50 (guinea pig whole brain membrane homogenates, logarithm of IC50, negative sign printed, read-out: logIC50 ± S.E.M., [3H]HS665 (KOR) (converted)) [nM] | Selectivity ratio DOR/KOR (ratio of Ki values)
Cc1c(C(=O)NC2CCNCC2)nn(-c2ccc(Cl)cc2Cl)c1-n1cccc1 [Compound 5] | negligible | – | – | –
Cc1c(C(=O)NC2CCN(C(=O)[C@H](Cc3ccccc3)NC(=O)CNC(=O)[C@@H](C)NC(=O)[C@@H](N)Cc3ccc(O)cc3)CC2)nn(-c2ccc(Cl)cc2Cl)c1-n1cccc1 [Compound 9] | unexpected improvement of affinity | 170 | 263 | 2.61
